In ChEMBL document CHEMBL2331217, “Evolvosides C–E, flavonol-4'-O-triglycosides from evolvulus alsinoides and their anti-stress activity [corrected]” (2013):

Tests used:
Format in all cases: functional
Rattus norvegicus [1] = assay: Anti-stress activity in Sprague-Dawley rat assessed as change in acute stress-induced plasma corticosterone level at 40 mg/kg, po qd for 3 days prior to acute stress induction measured after 150 mins by HPLC/UV analysis (reference value: 511.2 +/- 23.2 ng/ml)
Rattus norvegicus [2] = assay: Anti-stress activity in Sprague-Dawley rat assessed as change in acute stress-induced plasma creatine kinase level at 40 mg/kg, po qd for 3 days prior to acute stress induction measured after 150 mins (reference value: 1018 +/- 31.43 mg/dl)
Rattus norvegicus [3] = assay: Anti-stress activity in Sprague-Dawley rat assessed as change in acute stress-induced plasma glucose level at 40 mg/kg, po qd for 3 days prior to acute stress induction measured after 150 mins (reference value: 154.7 +/- 4.38 mg/dl)
Rattus norvegicus [4] = assay: Anti-stress activity in Sprague-Dawley rat assessed as change in acute stress-induced adrenal gland weight at 40 mg/kg, po qd for 3 days prior to acute stress induction measured after 150 mins (reference value: 10.2 +/- 0.84 mg/kg)

Row | SMILES | Activity (Rattus norvegicus [1]) [ng/mL] | Activity (Rattus norvegicus [2]) [mg/dL] | Activity (Rattus norvegicus [3]) [mg/dL] | Activity (Rattus norvegicus [4]) [mg/kg]
1 | COc1cc(O)c2c(=O)c(O)c(-c3ccc(O[C@@H]4O[C@H](CO[C@@H]5O[C@@H](C)[C@H](O)[C@@H](O)[C@H]5O[C@@H]5O[C@H](CO)[C@@H](O)[C@H](O)[C@H]5O)[C@@H](O)[C@H](O)[C@H]4O)cc3)oc2c1 [EVOLVOSIDE D] | 241.7 | 405.4 | 95.13 | 8.23
2 | C[C@@H]1O[C@@H](OC[C@H]2O[C@@H](Oc3ccc(-c4oc5cc(O)cc(O)c5c(=O)c4O)cc3)[C@H](O)[C@@H](O)[C@@H]2O)[C@H](O[C@@H]2O[C@H](CO)[C@@H](O)[C@H](O)[C@H]2O)[C@H](O)[C@H]1O [EVOLVOSIDE C] | 233.3 | 385.3 | 80.17 | 7.11
3 | O=c1c(O)c(-c2ccc(O[C@@H]3O[C@H](CO)[C@@H](O)[C@H](O)[C@H]3O[C@@H]3O[C@H](CO)[C@@H](O)[C@H](O)[C@H]3O)cc2)oc2cc(O)cc(O)c12 | 458.2 | 1078 | 113.1 | 10.91
4 | C[C@@H]1O[C@@H](OC[C@H]2O[C@@H](Oc3ccc(-c4oc5cc(O)cc(O)c5c(=O)c4O)cc3)[C@H](O)[C@@H](O)[C@@H]2O)[C@H](O)[C@H](O)[C@H]1O | 239.2 | 521.4 | 105.13 | 8.47
5 | O=c1cc(-c2ccc(O)cc2)oc2c([C@@H]3O[C@H](CO)[C@@H](O)[C@H](O)[C@H]3O)c(O)cc(O)c12 | 439 | 822 | 92.1 | 9.78
6 | COc1cc(OC)c2c(=O)c(O)c(-c3ccc(O[C@@H]4O[C@H](CO[C@@H]5O[C@@H](C)[C@H](O)[C@@H](O)[C@H]5O[C@@H]5O[C@H](CO)[C@@H](O)[C@H](O)[C@H]5O)[C@@H](O)[C@H](O)[C@H]4O)cc3)oc2c1 [EVOLVOSIDE E] | 252.6 | 413.7 |  | 
